Columns and labels:
HemO = HemO (Pseudomonas aeruginosa, UniProt O69002); test: STD NMR binding epitope; conditions: relative to the strongest interacting proton
[1] = test system: Caenorhabditis elegans infection model; conditions: previous work; cited from earlier work
P. aeruginosa HemO = target: T1, P. aeruginosa HemO (Pseudomonas aeruginosa, UniProt O69002); conditions: read-out: binding affinity for HemO; previous work; cited from earlier work
T1 sequence (O69002 1-198): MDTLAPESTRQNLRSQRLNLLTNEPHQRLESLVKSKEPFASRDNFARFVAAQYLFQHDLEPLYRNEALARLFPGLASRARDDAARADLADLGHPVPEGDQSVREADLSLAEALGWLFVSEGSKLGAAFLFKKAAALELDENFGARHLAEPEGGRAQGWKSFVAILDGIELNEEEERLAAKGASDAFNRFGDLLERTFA

P. aeruginosa = conditions: previous work; cited from earlier work

Row | Compound | relative STD interaction of the benzylimine proton (HemO) [%] | relative STD interaction of the para-position proton (HemO) [%] | curing activity in Caenorhabditis elegans infection model [1] | Kd (P. aeruginosa HemO) [µM] | MIC50 against P. aeruginosa (P. aeruginosa) [µg/mL]
1 | Cl.NC(N)=N/N=C/c1cccc(OCc2ccccc2)c1 [Compound 24, (E)-2-(3-(Benzyloxy)benzylidene)hydrazinecarboximidamide Hydrochloride] | 100 | 82 | – | – | –
2 | CN(C)c1ccc(/C=N/NC(=N)N)cc1.Cl [Compound 1, (E)-2-(4-(Dimethylamino)benzylidene)hydrazine-carboximidamide Hydrochloride] | – | – | exhibited curing activity | 31.2 | 250

From PMC5080841 (Journal of medicinal chemistry, 2016)
